Data on 13 compounds can be found in ChEMBL document CHEMBL1649463, “Capsular type and antibiotic resistance in Streptococcus agalactiae isolates from patients, ranging from newborns to the elderly, with invasive infections” (2009).

Molecules are shown by their SMILES. ≈ marks a conversion by molar mass, not a printed value.

The assay deals with Streptococcus agalactiae. As to the kind of experiment: Antimicrobial activity against Streptococcus agalactiae clinical isolates by agar dilution method. The class given is functional.
Usually MIC50 stands for an inhibitory concentration at the 50% level, which refers to growth in some studies and to a panel of isolates in others. Low values mean higher susceptibility, high ones lower susceptibility. As usually defined, the MIC90 is the lowest concentration that inhibits either 90% of growth or 90% of the strains tested, depending on the study. The compound `CC1(C)S[C@@H]2[C@H](NC(=O)Cc3ccccc3)C(=O)N2[C@H]1C(=O)O` [PENICILLIN G] showed an MIC50 of 0.063 µg/mL (≈ 0.188 µM) and an MIC90 of 0.063 µg/mL (≈ 0.188 µM).
In the case of `CC[C@H]1OC(=O)[C@H](C)[C@@H](O[C@H]2C[C@@](C)(OC)[C@@H](O)[C@H](C)O2)[C@H](C)[C@@H](O[C@@H]2O[C@H](C)C[C@H](N(C)C)[C@H]2O)[C@](C)(O)C[C@@H](C)C(=O)[C@H](C)[C@@H](O)[C@]1(C)O` [ERYTHROMYCIN], the MIC50 was found to be 0.032 µg/mL (≈ 0.0436 µM) and the MIC90 is no less than 64 µg/mL.
For the compound `CC1(C)S[C@@H]2[C@H](NC(=O)[C@H](N)c3ccc(O)cc3)C(=O)N2[C@H]1C(=O)O` [AMOXICILLIN], the MIC50 stood at 0.063 µg/mL (≈ 0.172 µM) and the MIC90 stood at 0.125 µg/mL (≈ 0.342 µM).
For `CC(=N)N1CC[C@H](SC2=C(C(=O)O)N3C(=O)[C@H]([C@@H](C)O)[C@H]3C2)C1`, in that order: 0.016 µg/mL (≈ 0.0471 µM) and 0.031 µg/mL (≈ 0.0913 µM).
Taken in the same sequence, the figures for `C[C@@H](O)[C@H]1C(=O)N2C(C(=O)O)=C(S[C@@H]3CN[C@H](C(=O)N(C)C)C3)[C@H](C)[C@H]12` [MEROPENEM] were 0.063 µg/mL (≈ 0.164 µM) and 0.063 µg/mL (≈ 0.164 µM).
For `CCC[C@@H]1C[C@@H](C(=O)N[C@@H]([C@H]2O[C@H](SC)[C@H](O)[C@@H](O)[C@H]2O)[C@H](C)Cl)N(C)C1` [CLINDAMYCIN], in that order: 0.063 µg/mL (≈ 0.148 µM) and no less than 64 µg/mL.
In turn, `CN(C)CCn1nnnc1SCC1=C(C(=O)O)N2C(=O)[C@@H](NC(=O)Cc3csc(N)n3)[C@H]2SC1` [CEFOTIAM] had an MIC50 of 0.5 µg/mL (≈ 0.951 µM) and an MIC90 of 0.5 µg/mL (≈ 0.951 µM).
`CC[C@H]1OC(=O)[C@H](C)[C@@H](O[C@H]2C[C@@](C)(OC)[C@@H](O)[C@H](C)O2)[C@H](C)[C@@H](O[C@@H]2O[C@H](C)C[C@H](N(C)C)[C@H]2O)[C@](C)(OC)C[C@@H](C)C(=O)[C@H](C)[C@@H](O)[C@]1(C)O` [CLARITHROMYCIN]: the MIC50 is 0.125 µg/mL (≈ 0.167 µM) and the MIC90 was no less than 64 µg/mL.
`C=CC1=C(C(=O)O)N2C(=O)[C@@H](NC(=O)/C(=N\O)c3csc(N)n3)[C@H]2SC1` came in with an MIC50 of 0.031 µg/mL (≈ 0.0784 µM) and an MIC90 of 0.063 µg/mL (≈ 0.159 µM).
Taken in the same sequence, the figures for `C[C@H]1COc2c(N3CCN(C)CC3)c(F)cc3c(=O)c(C(=O)O)cn1c23.C[C@H]1COc2c(N3CCN(C)CC3)c(F)cc3c(=O)c(C(=O)O)cn1c23.O` [LEVOFLOXACIN] were 2 µg/mL and no less than 64 µg/mL.
As for `CO/N=C(\C(=O)N[C@@H]1C(=O)N2C(C(=O)OCOC(=O)C(C)(C)C)=C(/C=C\c3scnc3C)CS[C@H]12)c1csc(N)n1` [CEFDITOREN PIVOXIL], the MIC50 is 0.031 µg/mL (≈ 0.0499 µM) and the MIC90 came out at 0.031 µg/mL (≈ 0.0499 µM).
With `CC1(C)S[C@@H]2[C@H](NC(=O)[C@H](N)c3ccccc3)C(=O)N2[C@H]1C(=O)O` [AMPICILLIN], the MIC50 was 0.125 µg/mL (≈ 0.358 µM) and the MIC90 came to 0.125 µg/mL (≈ 0.358 µM).
On to `CO/N=C(\C(=O)N[C@@H]1C(=O)N2C(C(=O)O)=C(COC(C)=O)CS[C@H]12)c1csc(N)n1` [CEFOTAXIME], for which the MIC50 was determined as 0.031 µg/mL (≈ 0.0681 µM) and the MIC90 was 0.063 µg/mL (≈ 0.138 µM).
